Several values for one entry are separate records, joined by “and”; a condition that tells them apart may be missing. Equal entries are not always repeated. Inconclusive results and toxic doses are left out. Rule as the data show it: active = T/C of 150% or more; inactive = T/C below 125%.
Tested on: L1210 leukemia ip in BDF1 mice, survival T/C
Assay: NCI In Vivo Anticancer Drug Screen. Data for tumor model L1210 Leukemia (intraperitoneal) in B6D2F1 (BDF1) mice
Conditions: endpoint: mean survival time, higher = longer survival
Method in brief: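 Antitumor effect is assessed in tumor-bearing animals. Survival in the compound arm is compared with a vehicle-dosed control arm and expressed as their quotient.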

[1] = dose: 25.0 mg/kg/injection, schedule: Q01DX009 (ip), vehicle: Klucel (hydroxypropylcellulose) (HPC)
[2] = dose: 50.0 mg/kg/injection, schedule: Q01DX009 (ip), vehicle: Klucel (hydroxypropylcellulose) (HPC)
[3] = dose: 100.0 mg/kg/injection, schedule: Q04DX003 (ip), vehicle: Klucel (hydroxypropylcellulose) (HPC)
[4] = dose: 200.0 mg/kg/injection, schedule: Q04DX003 (ip), vehicle: Klucel (hydroxypropylcellulose) (HPC)
[5] = dose: 400.0 mg/kg/injection, schedule: Q04DX003 (ip), vehicle: Klucel (hydroxypropylcellulose) (HPC)
[6] = dose: 100.0 mg/kg/injection, schedule: Q04DX003 (ip), vehicle: saline with Tween-80
[7] = dose: 200.0 mg/kg/injection, schedule: Q04DX003 (ip), vehicle: saline with Tween-80
[8] = dose: 100.0 mg/kg/injection, schedule: Q01DX009 (ip), vehicle: Klucel (hydroxypropylcellulose) (HPC)
[9] = dose: 200.0 mg/kg/injection, schedule: Q01DX009 (ip), vehicle: Klucel (hydroxypropylcellulose) (HPC)
[10] = dose: 50.0 mg/kg/injection, schedule: Q04DX003 (ip), vehicle: saline with Tween-80
[11] = dose: 400.0 mg/kg/injection, schedule: Q01DX009 (ip), vehicle: Klucel (hydroxypropylcellulose) (HPC)
[12] = dose: 400.0 mg/kg/injection, schedule: Q04DX003 (ip), vehicle: saline with Tween-80
[13] = dose: 100.0 mg/kg/injection, schedule: Q04DX002 (ip), vehicle: saline

Measured: T/C

CC(C)=CCC(CCN1CCOCC1)(C(N)=O)c1cccc2ccccc12 (configuration not stated)
inactive: dose: 6.25 mg/kg/injection, schedule: Q04DX003 (ip), vehicle: Klucel (hydroxypropylcellulose) (HPC) 104 % of control | dose: 12.5 mg/kg/injection, schedule: Q01DX009 (ip), vehicle: Klucel (hydroxypropylcellulose) (HPC) 96 % of control | dose: 12.5 mg/kg/injection, schedule: Q04DX003 (ip), vehicle: Klucel (hydroxypropylcellulose) (HPC) 94 % of control | [1] 104 % of control | dose: 25.0 mg/kg/injection, schedule: Q04DX003 (ip), vehicle: Klucel (hydroxypropylcellulose) (HPC) 98 % of control | [2] 90 % of control

COc1cccc(C)c1NC(=O)NCCCl
inactive: [3] 100 % of control | [4] 94 % of control | [5] 94 % of control

CCCC1N(C)CCCN1C
inactive: [6] 114 % of control | [7] 102 % of control

CNC(=O)Oc1cc2ccccc2cc1C(=O)Nc1cc(OC)ccc1OC
inactive: [1] 94 % of control | [2] 101 % of control | [8] 94 % of control | [9] 95 % of control

CCOC(=O)c1c(NC(=O)CCC(=O)Nc2sc(C)c(C)c2C(=O)OCC)sc(C)c1C
inactive: [10] 88 % of control | [8] 90 % of control | [6] 98 % of control | [7] 90 % of control | [11] 88 % of control | [12] 88 % of control

CCOCc1nc2nc(Cl)c(Cl)nc2[nH]1
inactive: dose: 25.0 mg/kg/injection, schedule: Q04DX003 (ip), vehicle: saline with Tween-80 97 % of control | dose: 50.0 mg/kg/injection, schedule: Q01DX009 (ip), vehicle: saline with Tween-80 106 % of control | [10] 97 % of control | dose: 100.0 mg/kg/injection, schedule: Q01DX009 (ip), vehicle: saline with Tween-80 116 % of control | [6] 97 % of control | dose: 200.0 mg/kg/injection, schedule: Q01DX009 (ip), vehicle: saline with Tween-80 87 % of control | [7] 95 % of control and 97 % of control

COc1cccc2c1C(=O)c1c(O)c3c(c(O)c1C2=O)CC(O)(C(C)=O)CC3OC1CC(NC(=S)Nc2ccccc2)C(O)C(C)O1 (configuration not stated)
inactive: dose: 2.0 mg/kg/injection, schedule: Q04DX003 (ip), vehicle: water 105 % of control | dose: 3.12 mg/kg/injection, schedule: Q01DX009 (ip), vehicle: saline with Tween-80 117 % of control | dose: 4.0 mg/kg/injection, schedule: Q04DX003 (ip), vehicle: water 111 % of control | dose: 6.25 mg/kg/injection, schedule: Q01DX009 (ip), vehicle: saline with Tween-80 122 % of control | dose: 8.0 mg/kg/injection, schedule: Q04DX003 (ip), vehicle: water 106 % of control | dose: 12.5 mg/kg/injection, schedule: Q01DX009 (ip), vehicle: saline with Tween-80 123 % of control | dose: 16.0 mg/kg/injection, schedule: Q04DX003 (ip), vehicle: water 120 % of control and 123 % of control | dose: 32.0 mg/kg/injection, schedule: Q04DX003 (ip), vehicle: water 123 % of control | dose: 64.0 mg/kg/injection, schedule: Q04DX003 (ip), vehicle: water 118 % of control | dose: 125.0 micrograms/kg/injection, schedule: Q04DX003 (ip), vehicle: water 98 % of control | dose: 250.0 micrograms/kg/injection, schedule: Q04DX003 (ip), vehicle: water 103 % of control | dose: 500.0 micrograms/kg/injection, schedule: Q04DX003 (ip), vehicle: water 107 % of control | dose: 1000.0 micrograms/kg/injection, schedule: Q04DX003 (ip), vehicle: water 102 % of control | dose: 2000.0 micrograms/kg/injection, schedule: Q04DX003 (ip), vehicle: water 104 % of control

O=c1[nH]nc2ccccn12
inactive: dose: 100.0 mg/kg/injection, schedule: Q01DX001 (ip), vehicle: Klucel (hydroxypropylcellulose) (HPC) 96 % of control | [3] 101 % of control | dose: 200.0 mg/kg/injection, schedule: Q01DX001 (ip), vehicle: Klucel (hydroxypropylcellulose) (HPC) 102 % of control | [4] 101 % of control | dose: 400.0 mg/kg/injection, schedule: Q01DX001 (ip), vehicle: Klucel (hydroxypropylcellulose) (HPC) 96 % of control | [5] 95 % of control

O=C(O)CN(Cc1ccccc1)C(=O)COc1ccc(Cl)c(Cl)c1
inactive: dose: 100.0 mg/kg/injection, schedule: Q04DX003 (ip), vehicle: gum acacia 100 % of control | dose: 200.0 mg/kg/injection, schedule: Q04DX003 (ip), vehicle: gum acacia 92 % of control | dose: 400.0 mg/kg/injection, schedule: Q04DX003 (ip), vehicle: gum acacia 91 % of control

CCC(C1=NC(C)(C)CO1)c1ccccc1Br (configuration not stated)
inactive: dose: 100.0 mg/kg/injection, schedule: Q04DX003 (ip), vehicle: saline 97 % of control | dose: 200.0 mg/kg/injection, schedule: Q04DX003 (ip), vehicle: saline 98 % of control | dose: 400.0 mg/kg/injection, schedule: Q04DX003 (ip), vehicle: saline 88 % of control

CC1(C)N=C(SCC(=O)c2ccccc2)NC1(C)C
inactive: dose: 25.0 mg/kg/injection, schedule: Q04DX002 (ip), vehicle: saline 101 % of control | dose: 50.0 mg/kg/injection, schedule: Q04DX002 (ip), vehicle: saline 101 % of control | [13] 101 % of control

C/C=C(/C)C(=O)OCCCCCCCCC
inactive: dose: 100.0 mg/kg/injection, schedule: Q04DX002 (ip), vehicle: Klucel (hydroxypropylcellulose) (HPC) 102 % of control | dose: 200.0 mg/kg/injection, schedule: Q04DX002 (ip), vehicle: Klucel (hydroxypropylcellulose) (HPC) 102 % of control | dose: 400.0 mg/kg/injection, schedule: Q04DX002 (ip), vehicle: Klucel (hydroxypropylcellulose) (HPC) 94 % of control

Clc1cccc(N=Cc2ccc3c(c2)OCO3)c1Cl
inactive: [8] 97 % of control | [9] 94 % of control | [11] 100 % of control

CCNC(=S)N/N=C(/c1ccc(OC)cc1)P(=O)(OCC)OCC
inactive: [3] 104 % of control | [4] 100 % of control | [5] 89 % of control

CCOC(=O)COc1ccc(N=NN(C)c2ccccc2)cc1
inactive: dose: 111.0 mg/kg/injection, schedule: Q01DX Z (ip), vehicle: carboxymethylcellulose (CMC) 102 % of control | dose: 166.0 mg/kg/injection, schedule: Q01DX Z (ip), vehicle: carboxymethylcellulose (CMC) 104 % of control | dose: 250.0 mg/kg/injection, schedule: Q01DX Z (ip), vehicle: carboxymethylcellulose (CMC) 113 % of control

O=C(O)c1cc(N=Nc2ncn[nH]2)ccc1O
inactive: dose: 87.5 mg/kg/injection, schedule: Q04DX003 (ip), vehicle: Klucel (hydroxypropylcellulose) (HPC) 96 % of control | dose: 175.0 mg/kg/injection, schedule: Q04DX003 (ip), vehicle: Klucel (hydroxypropylcellulose) (HPC) 97 % of control | dose: 350.0 mg/kg/injection, schedule: Q04DX003 (ip), vehicle: Klucel (hydroxypropylcellulose) (HPC) 100 % of control

Cn1ncc2ccccc2c1=O
inactive: dose: 50.0 mg/kg/injection, schedule: Q04DX003 (ip), vehicle: Klucel (hydroxypropylcellulose) (HPC) 100 % of control | [3] 100 % of control | [4] 106 % of control | [5] 110 % of control

Cc1cccc(OCC2CO2)c1 (configuration not stated)
inactive: [13] 87 % of control | dose: 200.0 mg/kg/injection, schedule: Q04DX002 (ip), vehicle: saline 102 % of control | dose: 400.0 mg/kg/injection, schedule: Q04DX002 (ip), vehicle: saline 105 % of control

C#CC(C)(C)CC(=O)O
inactive: [6] 98 % of control | [7] 95 % of control | [12] 92 % of control
